In PubChem BioAssay AID1845210 (Molecular Pharmacology Branch, DTP, NCI, 2023):
pIC50: −log10 of the molar value. Where “and” joins values, the source holds several entries; their conditions need not be identical. Identical values can stand only once.

System: NCI-H226 complex tumor spheroids, viability
Experiment: Anticancer human tumor NCI-H226 cell line growth inhibition;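 further: spheroids exposed to compound for 7 days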;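 on viability, T/C: 100% = DMSO vehicle control viability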
Conditions: for viability, T/C: stronger effect = lower value; active means viability on the fitted dose curve at most 10% of control; inactive means the rest
From the text: Multicellular complex tumor spheroid response to DNA repair inhibitors in combination with DNA-damaging drugs
This study explores the anticancer activities of DNA-damaging drugs and inhibitors of DNA damage repair, both as single agents and in combinations. Complex tumor spheroids comprised of malignant cells, endothelial cells and mesenchymal stem cells served as an in vitro model for human solid tumors. This model system incorporates physiologically relevant features and patient-derived or established malignant cell lines with clinically relevant genetic alterations from many tumor types. Twenty-six patient-derived or established malignant cell lines were evaluated representing sarcoma, melanoma, small cell lung cancer (SCLC), non-small cell lung cancer (NSCLC), as well as bladder, ovarian and pancreatic cancers. The concentration ranges selected for each drug and investigational agent were based upon clinically achievable concentrations if the clinical Cmax of the agent was known.
Compounds. The drugs and compounds olaparib (NSC753686), talazoparib (NSC767125), berzosertib (NSC777718), elimusertib (NSC800525), nedisertib (NSC802822), VX-984 (NSC792969), AZD-1390 (NSC803789), temozolomide (NSC362856), topotecan (NSC609699), trabectedin (NSC813783), staurosporine (NSC755774), and gemcitabine (NSC613327) were obtained from the National Cancer Institute (NCI) Developmental Therapeutics Program Chemical Repository. The FDA-approved anticancer drug set is available from the Developmental Therapeutics Program at https://dtp.cancer.gov/organization/dscb/obtaining/available_plates.htm. […] The stock solutions were prepared in dimethyl sulfoxide (DMSO, Sigma-Aldrich, St. Louis, MO, cat. D2650) at 400-fold the tested concentration and stored at -70 degrees C. Prior to their use, the stock solutions were diluted in fresh medium and the final DMSO concentration in the assay was 0.25% (v/v). All drugs and investigational agents were tested over a range starting from a high concentration at or near the clinical Cmax and decreasing in half-log increments. If the clinical Cmax for an agent had not been determined, the highest concentration tested was 10 microM.
Cell Lines. The patient-derived cancer cell (PDC) lines: 156681-154-R-J1-PDC, 283228-195-R-J1-PDC, 287954-098-R-J1-PDC, 292921-168-R-J2-PDC, 349418-098-R-PDC, 425362-245-T-J1-PDC, 556581-035-R-J1-PDC, and BL0293-F563-PDC were received from the NCI Patient-Derived Models Repository (PDMR, https://pdmr.cancer.gov). The established cell lines HS-SY-2 (RRID:CVCL_8719), MPNST, and SYO-1 (RRID:CVCL_7146) were obtained from the Sloan Kettering Institute. The alveolar soft parts sarcoma cell line ASPS-1 (RRID:CVCL_S738) was established at the NCI and grown from internal seed stocks. The following established cell lines were purchased from the American Type Culture Collection (ATCC, Manassas, VA): G-401 (ATCC, cat. CRL-1441, RRID:CVCL_0270), SW982 (ATCC, cat. HTB-93, RRID:CVCL_1734), VA-ES-BJ (ATCC, cat. CRL-2138, RRID:CVCL_1785), NCI-H719 (ATCC, cat. CRL-5837, RRID:CVCL_1582), NCI-H196 (ATCC, cat. CRL-5823, RRID:CVCL_1509), NCI-H841 (ATCC, cat. CRL-5845, RRID:CVCL_1595), NCI-H1618 (ATCC, cat. CRL-5879, RRID:CVCL_1480), NCI-H1876 (ATCC, cat. CRL-5902, RRID:CVCL_1503), DMS 114 (ATCC, cat. CRL-2066; RRID:CVCL_1174), NCI-H211 (ATCC, cat. CRL-5824; RRID:CVCL_1529), and SW 1271 (ATCC, cat. CRL-2177, RRID:CVCL_1716). The small cell lung cancer cell line COR-L88 was purchased from Sigma-Aldrich (cat. 92031917-1VL, RRID:CVCL_1141). The non-small cell lung cancer cell lines NCI-H226 (RRID:CVCL_1544) and NCI-H322M (RRID:CVCL_1557) were established at the NCI and grown from internal seed stocks. Pooled donor human umbilical vein endothelial cells (HUVEC, Lonza, cat. CC-2519) and human mesenchymal stem cells (hMSC, Lonza, cat. PT-2501) were purchased from Lonza (Walkersville, MD).
Cell Culture. All cells were maintained in an incubator at 37 degrees C and 5% CO2 with 95% humidity. […]

Cn1ncnc1[C@H]1c2n[nH]c(=O)c3cc(F)cc(c23)N[C@@H]1c1ccc(F)cc1
< 5.52: pIC50 (curve of compound)
inactive: viability, T/C (compound 0.00949 µM) 96.2% and 89.2% and 90.4% | viability, T/C (compound 0.03 µM) 94.6% and 95.9% and 92.7% | viability, T/C (compound 0.0949 µM) 87.4% and 93.6% and 101% | viability, T/C (compound 0.3 µM) 89.4% and 101% and 88.2% | viability, T/C (compound 0.949 µM) 88.6% and 84.1% and 87% | viability, T/C (compound 3 µM) 94.2% and 99.2% and 107%

Cn1nnc2c(C(N)=O)ncn2c1=O
< 4.00: pIC50 (compound alone, run of 12/02/2019)
inactive: viability, T/C (compound 3.16 µM) 112% [middle of 10 runs] | viability, T/C (compound 10 µM) 108% [middle of 10 runs] | viability, T/C (compound 31.6 µM) 110% [middle of 10 runs] | viability, T/C (compound 100 µM) 109% [middle of 10 runs]

O=C(c1cc(Cc2n[nH]c(=O)c3ccccc23)ccc1F)N1CCN(C(=O)C2CC2)CC1
< 4.52: pIC50 (curve of compound)
inactive: viability, T/C (compound 0.0949 µM) 98.6% and 105% and 103% | viability, T/C (compound 0.3 µM) 97.1% and 100% and 96.8% | viability, T/C (compound 0.949 µM) 104% (2×) and 101% | viability, T/C (compound 3 µM) 98.5% and 99.3% and 93.9% | viability, T/C (compound 9.49 µM) 96.9% and 87.4% and 106% | viability, T/C (compound 30 µM) 92.1% and 79% and 86.7%

[2H]c1nc(C)nc([2H])c1-c1cc(NC[C@@H](C)c2cccc3c(C(=O)NC)ccnc23)ncn1
inactive: viability, T/C (compound 0.0316 µM) 93.8% and 95.7% and 112% | viability, T/C (compound 0.1 µM) 101% and 95.3% and 97.7% | viability, T/C (compound 0.316 µM) 103% and 106% and 88.5% | viability, T/C (compound 1 µM) 107% and 106% and 93.5% | viability, T/C (compound 3.16 µM) 101% and 99.3% and 88.1% | viability, T/C (compound 10 µM) 111% and 114% and 106%
< 5.00: pIC50 (curve of compound)

O=C(c1cc(Cc2n[nH]c(=O)c3ccccc23)ccc1F)N1CCN(C(=O)C2CC2)CC1 + CC[C@@]1(O)C(=O)OCc2c1cc1n(c2=O)Cc2cc3c(CN(C)C)c(O)ccc3nc2-1
< 4.52: pIC50 (curve of first compound, second compound 0.003 µM) | pIC50 (curve of first compound, second compound 0.00949 µM) | pIC50 (curve of first compound, second compound 0.03 µM) | pIC50 (curve of first compound, second compound 0.0949 µM) | pIC50 (curve of first compound, second compound 0.3 µM)
inactive: viability, T/C (second compound 0.003 µM, first compound 0.0949 µM) 103% | viability, T/C (second compound 0.003 µM, first compound 0.3 µM) 95.8% | viability, T/C (second compound 0.003 µM, first compound 0.949 µM) 100% | viability, T/C (second compound 0.003 µM, first compound 3 µM) 106% | viability, T/C (second compound 0.003 µM, first compound 9.49 µM) 97.9% | viability, T/C (second compound 0.003 µM, first compound 30 µM) 100% | viability, T/C (second compound 0.00949 µM, first compound 0.0949 µM) 94.7% | viability, T/C (second compound 0.00949 µM, first compound 0.3 µM) 91.2% | viability, T/C (second compound 0.00949 µM, first compound 0.949 µM) 95.9% | viability, T/C (second compound 0.00949 µM, first compound 3 µM) 91% | viability, T/C (second compound 0.00949 µM, first compound 9.49 µM) 85.9% | viability, T/C (second compound 0.00949 µM, first compound 30 µM) 81.1% | viability, T/C (second compound 0.03 µM, first compound 0.0949 µM) 88.9% | viability, T/C (second compound 0.03 µM, first compound 0.3 µM) 90.4% | viability, T/C (second compound 0.03 µM, first compound 0.949 µM) 90.1% | viability, T/C (second compound 0.03 µM, first compound 3 µM) 91.2% | viability, T/C (second compound 0.03 µM, first compound 9.49 µM) 96.5% | viability, T/C (second compound 0.03 µM, first compound 30 µM) 89.9% | viability, T/C (second compound 0.0949 µM, first compound 0.0949 µM) 78.4% | viability, T/C (second compound 0.0949 µM, first compound 0.3 µM) 74.4% | viability, T/C (second compound 0.0949 µM, first compound 0.949 µM) 80.2% | viability, T/C (second compound 0.0949 µM, first compound 3 µM) 79.8% | viability, T/C (second compound 0.0949 µM, first compound 9.49 µM) 74.9% | viability, T/C (second compound 0.0949 µM, first compound 30 µM) 78.8% | viability, T/C (second compound 0.3 µM, first compound 0.0949 µM) 68.9% | viability, T/C (second compound 0.3 µM, first compound 0.3 µM) 68.7% | viability, T/C (second compound 0.3 µM, first compound 0.949 µM) 72.7% | viability, T/C (second compound 0.3 µM, first compound 3 µM) 66.8% | viability, T/C (second compound 0.3 µM, first compound 9.49 µM) 70.6% | viability, T/C (second compound 0.3 µM, first compound 30 µM) 60.7%
